The text below walks through data of paper PMC11148078, “Potent activity of polymyxin B is associated with long-lived super-stoichiometric accumulation mediated by weak-affinity binding to lipid A” (Nature Communications, 2024).

Experiment [1] relates to polymyxin B-resistant E. coli PmrA^G53E cells. Kind of experiment: Whole cell SPR, E. coli PmrA^G53E. In kind it is binding. The method, then: Bacterial strains were grown in LB or LB with 0.2% arabinose and carbenicillin (50 μg/mL) to log phase (OD600 approximately 0.4–0.6), centrifuged for 10 min at 2500 × g (3500 rpm using a tabletop centrifuge), and re-suspended in PBS to a final OD600 of approximately 5. SPR on whole bacterial cells was performed and analyzed as described for OMVs on C1 chip, but with an additional carry-over wash prior to the capture. Regeneration of the chip after whole cell binding also required additional steps ([…] flow rate): (1) PBS supplemented with 32 mM MgCl2 for 120 s, (2) 2.5 M NaCl for 30 s, (3) 0.5% SDS (Desorb 1, Cytiva) for 60 s with carry over controls between.

Another experiment relates to wt-OMVs. In words: SPR chaser analysis (residence time), wt-OMVs. In kind it is binding, E. coli. Particulars: for t1/2: n≥3, (SD). The method, then: The off-rate of the tightly bound fraction was estimated using a chaser analysis, where OMVs were pre-saturated with polymyxin B and then re-saturated after an extended time interval (Supplementary Information Fig. S11A). […] A t1/2 of >6 h was determined for polymyxin B binding to OMVs at both 25 and 37 °C (SI Table S3). The t1/2 of brevicidine, also measured by chaser analysis, was approximately 1 h on both wt-OMVs and polymyxin-resistant-OMVs (SI Table S3).
Binding and kinetic analysis of SPR-OMV assays […]
To determine the residence time of the test compound with OMVs, the ‘chaser method’ was used because it accounts for drift that can occur in the system over long incubation times 13. OMVs were loaded onto the chip as described above then 5 µM polymyxin B was injected using the ‘low-sample consumption’ setting for 300 sec ([…] flow rate), followed by a 240 sec dissociation time. A second dose of 5 µM polymyxin B was then injected for 60 sec ([…]) to assure saturation followed by a 2 h dissociation time prior to the ‘chaser’, a 60 sec pulse of 5 µM polymyxin B. The RUs of associated polymyxin B were determined 120 sec after the start of the dissociation. The change in RUs from before dosing to after the second dose, and the change in RUs from prior to the ‘chaser’ dose and 120 sec after the start of its dissociation were used to calculate the fraction occupancy of the material and the residence time/half-life as described 13. […]
PMBN) to LPS for 20 min. […]
20 sec with a Solarus plasma cleaner (Gatan). Grids were blotted and plunge-frozen by Vitrobot (ThermoFisher Scientific, Waltham, MA) at 4°C, 100% relative humidity, blot force 7, and a 3 sec […]
TEM data collection was performed using a Titan Krios G3i (ThermoFisher Scientific, Waltham, MA) operating at 300 kV equipped with a BioQuantum energy filter and a K3 Summit direct electron detector operating at a nominal magnification of 105,000x (0.838 Å/pixel), an energy slit width of 20 eV, defocus range -1 to -3 μm, 3-sec exposure time, 60 frames per movie, a total electron fluence of ~64 e/Å2. Microscope and camera automation was accomplished by SerialEM14, and image processing (motion correction & CTF estimation) was performed using […]
Standard cryo-EM image processing software and methods were incompatible with the vesicle images, so a blinded visual scoring method for image analysis was used. Approximately 50 images from each sample and treatment condition that each contained at least one OMV (pooled in a single folder and blinded) were scored for number of vesicles touching (0-10+), and if the vesicle membranes appeared disrupted or abnormal. Sampling was not completely random as images of vesicles could not be obtained from areas with significant clumping. Images shown in […]

Bridge positions count the residues as written; N and C are the ends. Square brackets hold non-standard residues; d marks the D form. Peptide text beside a SMILES is read from it. * marks the point of attachment. X1 = CC[C@H](C)CCCCC(=O)*; Dab = NCC[C@H](N)C(=O)O

Regarding `CC[C@H](C)CCCCC(=O)N[C@@H](CCN)C(=O)N[C@H](C(=O)N[C@@H](CCN)C(=O)N[C@H]1CCNC(=O)[C@H]([C@@H](C)O)NC(=O)[C@H](CCN)NC(=O)[C@H](CCN)NC(=O)[C@H](CC(C)C)NC(=O)[C@@H](Cc2ccccc2)NC(=O)[C@H](CCN)NC1=O)[C@@H](C)O` [Polymyxin B] (X1-[Dab]T[Dab][Dab][Dab][dF]L[Dab][Dab]T; lactam 4-C (inferred); N-terminus assumed), the “SPR binding profile” value in experiment [1] is recorded as “same polymyxin B binding profiles were observed”. In the experiment on wt-OMVs (25 and 37 °C), the “t1/2 of tightly bound state” value is greater than 6 h. Besides, the t1/2 was 6.86 (2.11) h in the experiment on wt-OMVs (25 °C) and 7.27 (2.15) h with wt-OMVs (37 °C).
